Data taken from BindingDB's records for patent US9428501 (Astellas Pharma Inc, 2016).

Target: 5'-AMP-activated protein kinase catalytic subunit alpha-2 (Homo sapiens, UniProt P54646)
Test: Activation Assay
Details: 37 °C
Procedure: After the incubation, 20 μl of a 40% glyoxal solution (Nacalai Tesque) was added to each well, and then cells were fixed by leaving to stand at room temperature for 30 minutes. Thereafter, the supernatant was removed by centrifuging the plate, and then 0.1% Triton X-100-containing Phosphate-Buffered Saline (PBS) was added to each well by 20 followed by incubating at room temperature for 10 minutes. […] The blocking solution was removed by centrifuging, with the exception of the blocking solution by centrifugation, and then a blocking solution which was diluted such that the amount of phosphorylation antibody (manufactured by Cell Signaling Technology, Inc) of ACC Ser79 as a primary antibody is 1/500 was added to each well by 10 followed by leaving to stand at 4° C. overnight. The following day, the reaction liquid was removed by centrifuging the plate, and then 0.05% Tween-20-containing Tris-Buffered Saline (TBS) (manufacture by Thermo Scientific Inc.; used in 1× in which 20×TBS Tween-20 was diluted with ion-exchange water) was added to each well by 25 followed by washing each well by centrifugal removal. The washing of each well was repeated for a total of 3 times. […]

Sequence of 5'-AMP-activated protein kinase catalytic subunit alpha-2 (P54646 whole entry): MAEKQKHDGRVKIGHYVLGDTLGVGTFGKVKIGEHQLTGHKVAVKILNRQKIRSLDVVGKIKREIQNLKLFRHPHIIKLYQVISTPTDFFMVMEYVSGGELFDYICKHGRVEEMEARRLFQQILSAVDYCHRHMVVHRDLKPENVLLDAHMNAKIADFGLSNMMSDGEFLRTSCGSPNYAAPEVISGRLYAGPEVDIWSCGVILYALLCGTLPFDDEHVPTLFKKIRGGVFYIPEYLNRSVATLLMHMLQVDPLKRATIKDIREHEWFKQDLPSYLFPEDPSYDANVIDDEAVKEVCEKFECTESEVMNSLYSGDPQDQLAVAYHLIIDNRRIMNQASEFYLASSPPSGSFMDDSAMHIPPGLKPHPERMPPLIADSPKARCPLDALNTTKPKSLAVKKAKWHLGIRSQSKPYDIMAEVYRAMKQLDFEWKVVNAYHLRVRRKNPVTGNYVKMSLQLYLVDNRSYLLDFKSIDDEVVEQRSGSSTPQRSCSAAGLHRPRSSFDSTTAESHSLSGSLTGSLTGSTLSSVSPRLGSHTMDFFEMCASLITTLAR

An EC50 of 1.8 nM was found for `CCOc1cnc(CN2CCC(c3ccc4cc(C(=O)N5CCN(Cc6ccc(C#N)cc6)CC5)n(C)c4c3)CC2)cn1` [US9428501, 69] in this work.
